Laboratory results as given in article PMC6895048, “4,5-Disubstituted 1,2,3-triazoles: Effective Inhibition of Indoleamine 2,3-Dioxygenase 1 Enzyme Regulates T cell Activity and Mitigates Tumor Growth” (Scientific Reports, 2019).

How the values were obtained:
Parameters in all cases: made in house; host or cells: Escherichia coli M15 (pQE30 vector with pREP4 plasmid)
IDO1 [1] = biological target: T1, IDO1 (Homo sapiens, UniProt P14902); test: Equilibrium surface plasmon resonance (SPR) analysis; format: binding; conditions: PBS buffer pH 7.4, triplicate
Experimental: The surface plasmon resonance (SPR) analysis was carried out according to the reported procedure with minor modifications[34],[52]. In brief, the measurements were performed at 25 °C on the Biacore-X100 instrument using CM5 sensor chip (GE Healthcare). PBS buffer at pH 7.4 was used as running buffer. The surface of the CM5 sensor chip was first modified with Anti-His Antibody using amine-coupling kit at a flow rate of 30 µL/ minute, followed by IDO1 enzyme (30 µg/mL) immobilization using His-capture kit at a flow rate of 10 µL/minute for 2 minutes. The IDO1 enzyme capture level was 4000 response units (RU). The binding efficacy (association constant; ka) of the compounds was determined by measuring the change in RU of the SPR sensorgram in absence or presence of the compounds (0 to 50 µM).
Figure S1. Measurements of compound binding affinity of the human IDO1 enzyme by […]
equilibrium SPR analysis.
(D), respectively injected over the biosensor chip surface-immobilized with IDO-1 protein are indicated. PBS buffer at pH 7.4 was used for all measurements. Binding isotherm was generated from the Req (average of triplicate measurements) versus the concentration of […] plot. Kd values determined by nonlinear least-squares analysis of the isotherm using the following equation: Req = Rmax/(1 + Kd/P).
Table S3. IDO1 binding affinity of various compounds determined from equilibrium SPR […]
(1 picture or pasted object on this page, not shown here)

IDO1 [2] = biological target: T1, IDO1; test: Kynurenine assay by HPLC analysis, IDO1; format: biochemical
Experimental: HPLC based IDO1, and TDO inhibition assays were performed according to the earlier reported procedure[19],[27]–[30]. The reaction mixture (250 µL) contained KPB (100 mM, pH 6.5 for IDO1 and 50 mM, pH 8.0 for TDO), sodium ascorbate (20 mM), methylene blue (10 µM), catalase (240 nM, from bovine liver, Sigma), L-Trp (150 µM), purified enzyme (40 nM for IDO1 and 25 nM for TDO), DMSO (0.05%, v/v), Triton-X 100 (0.01%, v/v) and inhibitors. The concentration of the compound was varied from 100 µM to 32 nM by serial dilution. The mixture was incubated at 37 °C for 1 hour in the absence and presence of the synthesized compounds. The reaction was then quenched using 50 µL of 30% (w/v) trichloroacetic acid and incubated at 65 °C for additional 15 minutes to allow complete hydrolysis of N-formylkynurenine to kynurenine. After that, the mixture was centrifuged at 10,000 rpm for 10 minutes, and 100 µL of clear solution was transferred to another tube for HPLC analysis. Then, 20 µL of the reaction mixture was then injected through Ascentis® express C18, 2.7 µm HPLC column with a flow rate of 0.5 mL/minute of the mobile phase containing 50% sodium citrate buffer (40 mM, pH 2.25) and 50% methanol (v/v) with 400 µM SDS. The area under the curve at 365 nm chromatogram corresponding to the kynurenine formation was recorded, and % of inhibition was calculated using standard curve prepared with pure kynurenine (from Sigma) under similar experimental conditions.

IDO1 [3] = biological target: T1, IDO1; test: Circular dichroism analysis of IDO1 enzyme
Experimental: The Circular Dichroism (CD) spectra of the IDO1 enzyme in the absence or presence of compounds were recorded with a Jasco-810-spectropolarimeter according to the reported procedure[37],[38]. Samples of rIDO1 (2 μM) were prepared in 10 mM KPB buffer (pH 6.5) in a […] quartz cuvette. Spectra were recorded by varying the concentration of the compound (250 nM to 4 µM) using a 1 mL quartz cuvette of 1 cm path length with a Jasco J-1500 spectropolarimeter at 17 °C. Also the spectra were collected at a scan rate […] and 1 nm bandwidth from 200 nm to 260 nm with three times scan for averaging. All final spectra were corrected for buffer background CD signals. The % of the secondary structures of the IDO1 enzyme was analyzed using the inbuilt software of the instrument.

[4] = HPLC based IDO1 inhibition assay

T1 sequence (P14902 whole entry): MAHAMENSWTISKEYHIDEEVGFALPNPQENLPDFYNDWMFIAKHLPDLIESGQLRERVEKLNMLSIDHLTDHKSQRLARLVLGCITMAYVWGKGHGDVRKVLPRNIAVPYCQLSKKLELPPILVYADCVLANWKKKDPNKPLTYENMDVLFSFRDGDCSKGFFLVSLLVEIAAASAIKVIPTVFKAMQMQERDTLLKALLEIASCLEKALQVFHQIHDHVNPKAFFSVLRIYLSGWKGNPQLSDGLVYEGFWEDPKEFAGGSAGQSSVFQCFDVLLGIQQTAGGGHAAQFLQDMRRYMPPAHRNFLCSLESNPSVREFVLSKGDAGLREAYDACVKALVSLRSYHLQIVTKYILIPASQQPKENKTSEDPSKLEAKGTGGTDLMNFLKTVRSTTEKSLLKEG

Kd (IDO1 [1]) [nM] | IC50 (IDO1 [2]; [4]) [nM] | % of Secondary structural elements, Beta (IDO1 [3]; compound 0.25 µM) [%] | % of Secondary structural elements, Helix (IDO1 [3]; compound 0.25 µM) [%] | % of Secondary structural elements, Random (IDO1 [3]; compound 0.25 µM) [%] | % of Secondary structural elements, Turn (IDO1 [3]; compound 0.25 µM) [%] | % of Secondary structural elements, Beta (IDO1 [3]; compound 0.5 µM) [%] | % of Secondary structural elements, Helix (IDO1 [3]; compound 0.5 µM) [%] | % of Secondary structural elements, Random (IDO1 [3]; compound 0.5 µM) [%] | % of Secondary structural elements, Turn (IDO1 [3]; compound 0.5 µM) [%] | % of Secondary structural elements, Beta (IDO1 [3]; compound 1 µM) [%] | % of Secondary structural elements, Helix (IDO1 [3]; compound 1 µM) [%] | % of Secondary structural elements, Random (IDO1 [3]; compound 1 µM) [%] | % of Secondary structural elements, Turn (IDO1 [3]; compound 1 µM) [%] | % of Secondary structural elements, Beta (IDO1 [3]; compound 2 µM) [%] | % of Secondary structural elements, Helix (IDO1 [3]; compound 2 µM) [%] | % of Secondary structural elements, Random (IDO1 [3]; compound 2 µM) [%] | % of Secondary structural elements, Turn (IDO1 [3]; compound 2 µM) [%] | % of Secondary structural elements, Beta (IDO1 [3]; compound 4 µM) [%] | % of Secondary structural elements, Helix (IDO1 [3]; compound 4 µM) [%] | Structure (SMILES) | further results
49100 ± 8510 | 59 ± 6 | 3.6 | 26.8 | 34.3 | 35.3 | 0 | 30.6 | 31.2 | 38.2 | 0 | 28 | 33.9 | 38.1 | 0 | 23.8 | 46.0 | 30.2 | 0 | 29.1 | NS(=O)(=O)NCCNC(=O)c1n[nH]nc1-c1ccc(F)c(F)c1 [Compound 4k] | inhibition at 0.032 µM (IDO1 [2]; HPLC, 32 nM): 14%; inhibition at 0.16 µM (IDO1 [2]; HPLC, 160 nM): 45%; inhibition at 0.8 µM (IDO1 [2]; HPLC, 800 nM): 69%; inhibition at 4 µM (IDO1 [2]; HPLC, 4 µM): 77%; inhibition at 20 µM (IDO1 [2]; HPLC, 20 µM): 86%; inhibition at 100 µM (IDO1 [2]; HPLC, 100 µM): 84%; IC50 (IDO1 [2]; kynurenine assay): 60 to 115 nM; % of Secondary structural elements, Random (IDO1 [3]; compound 4 µM): 36.4%; % of Secondary structural elements, Turn (IDO1 [3]; compound 4 µM): 34.5%
61700 ± 6070 | 396 ± 10 | 0 | 28 | 37.9 | 34.1 | 0 | 28.7 | 36.1 | 35.2 | 0 | 30.2 | 33.5 | 36.3 | 0 | 30.5 | 33.8 | 35.7 | 0 | 30.5 | CCOC(=O)c1n[nH]nc1-c1ccc(F)c(F)c1 [Compound 2i] | % Of inhibition for IDO1 enzyme (IDO1 [2]; HPLC, 32 nM): 21%; % Of inhibition for IDO1 enzyme (IDO1 [2]; HPLC, 160 nM): 29%; % Of inhibition for IDO1 enzyme (IDO1 [2]; HPLC, 800 nM): 59%; % Of inhibition for IDO1 enzyme (IDO1 [2]; HPLC, 4 µM): 60%; % Of inhibition for IDO1 enzyme (IDO1 [2]; HPLC, 20 µM): 78%; % Of inhibition for IDO1 enzyme (IDO1 [2]; HPLC, 100 µM): 80%; % of Secondary structural elements, Random (IDO1 [3]; compound 4 µM): 35.7%; % of Secondary structural elements, Turn (IDO1 [3]; compound 4 µM): 33.8%
40200 ± 4990 | 114 ± 10 | 0.7 | 27.8 | 37.6 | 33.9 | 0 | 28 | 38.1 | 33.9 | 0 | 27.6 | 40.6 | 31.8 | 0 | 29.8 | 42.6 | 27.6 | 0 | 31.8 | O=C(N/C(Cc1ccc(O)cc1)=N\O)c1n[nH]nc1-c1ccc(F)c(F)c1 [Compound 4i] | % Of inhibition for IDO1 enzyme (IDO1 [2]; HPLC, 32 nM): 13%; % Of inhibition for IDO1 enzyme (IDO1 [2]; HPLC, 160 nM): 34%; % Of inhibition for IDO1 enzyme (IDO1 [2]; HPLC, 800 nM): 52%; % Of inhibition for IDO1 enzyme (IDO1 [2]; HPLC, 4 µM): 68%; % Of inhibition for IDO1 enzyme (IDO1 [2]; HPLC, 20 µM): 79%; % Of inhibition for IDO1 enzyme (IDO1 [2]; HPLC, 100 µM): 84%; IC50 (IDO1 [2]; kynurenine assay): 60 to 115 nM; % of Secondary structural elements, Random (IDO1 [3]; compound 4 µM): 38.8%; % of Secondary structural elements, Turn (IDO1 [3]; compound 4 µM): 29.4%
34500 ± 5200 | 119 ± 13 | 0 | 30.1 | 35.8 | 34.1 | 0 | 29.4 | 36.8 | 33.8 | 0 | 29.8 | 35.8 | 34.5 | 0 | 28.5 | 40.8 | 30.7 | 0 | 30.7 | NC(=O)c1n[nH]nc1-c1ccc(F)c(F)c1 [Compound 3i] | % Of inhibition for IDO1 enzyme (IDO1 [2]; HPLC, 32 nM): 27%; % Of inhibition for IDO1 enzyme (IDO1 [2]; HPLC, 160 nM): 48%; % Of inhibition for IDO1 enzyme (IDO1 [2]; HPLC, 800 nM): 69%; % Of inhibition for IDO1 enzyme (IDO1 [2]; HPLC, 4 µM): 76%; % Of inhibition for IDO1 enzyme (IDO1 [2]; HPLC, 20 µM): 84%; % Of inhibition for IDO1 enzyme (IDO1 [2]; HPLC, 100 µM): 83%; % of Secondary structural elements, Random (IDO1 [3]; compound 4 µM): 60.4%; % of Secondary structural elements, Turn (IDO1 [3]; compound 4 µM): 8.9%
